# Experimental data published in publication PMC9088798, “An Approach to Derive Functional Peptide Inhibitors of Transcription Factor Activity” (JACS Au, 2022).
# Where no end group is shown, it is not given here.
# Columns and labels:
# WT-mDHFR = assay: DHFR activity assay (NADPH turnover at 340 nm), WT-mDHFR; type: biochemical, murine
# Procedure: (§1) (A) Fifteen TRE sites were introduced into the mDHFR gene (2 silent and 13 substitutions) to allow for a cJun-induced transcriptional block. […] Change in absorbance at 340 nm was measured to determine the rate of NADPH turnover by (B) WT-mDHFR and (C) TRE-mDHFR with or without the substrate DHF. […] Specific activity was calculated from the linear initial rate (first 2.5 min for WT-mDHFR, first 10 min for TRE-mDHFR; +NADPH only reaction blank subtracted). Data are averages from triplicate experiments with errors shown as one standard deviation.
# (§2) Jupiter Proteo column (4-μm particle size, 90 Å pore size, 250 × 10 mm; Phenomenex) using a water:acetonitrile gradient (0.1% TFA). Peptides without a SUMO tag, were concentrated after Histrap elution and HPLC purified. […]
# (§3) or Mtx (1 µM in reaction). Reactions were initiated by the addition of DHF (50 µM in reaction plus a blank reaction with no DHF) and the absorbance at 340 nm of samples was measured using a Varian Cary 50 UV-Vis spectrophotometer. The specific activity (∆OD/minsample― ∆OD/minblank) was calculated using the following equation. Specific activity = 12.3× mg protein Library Construction and TBS Assay: Library inserts were produced using PCR fill-in reactions from synthesised primers (Sigma) with degenerate codons at the desired positions to produce the correct residue options. […]
# TRE-mDHFR = assay: DHFR activity assay (NADPH turnover at 340 nm), TRE-mDHFR; type: biochemical, murine
# Procedure: as §1, §2, §3
# cJun/TRE DNA interaction = biological target: T1, cJun/TRE DNA interaction (Homo sapiens, UniProt P05412); assay: CD TRE DNA peak shift, antagonism of cJun/TRE DNA interaction; type: biochemical; conditions: cJun 20 μM, TRE DNA 5 μM, DNA peak ~281 nm, Hill equation; three independent experiments, one SD; pH 7.4
# T1 construct: The human cJun bZIP domain spans from Arg252 to Leu308; His-SUMO (N, cleaved yes); AS cap (two residues Ala-Ser) (N); GAP cap (three residues Gly-Ala-Pro) (C); made in house; host or cells: E. coli (pET21-His-SUMO plasmid)
# T1 sequence (P05412 252-308): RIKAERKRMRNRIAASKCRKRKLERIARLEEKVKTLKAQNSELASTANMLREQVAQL
# Procedure: The binding of cJun to TRE DNA can be observed by monitoring a DNA absorbance peak in the CD spectrum centered at ∼281 nm.[44] […] The addition of cJun (20 μM) to TRE DNA (5 μM) decreases this DNA peak by 55% as the cJun engages its target TRE site and alters the DNA structure (Figure 6A). Subsequent titration of HingeW into this bound cJun/TRE DNA mixture reverses the peak shift, with the peak increasing as DNA is released.
# Figure 6 HingeW antagonizes cJun/TRE DNA interaction more effectively than A-FosW. (A) CD spectra showing a shift in the TRE DNA peak at ∼281 nm upon addition of cJun, which is reversed by the titration of HingeW into the sample, as HingeW sequesters the cJun in a nonfunctional heterodimer. […] EMSA showing the (C) unbound TRE DNA band shift upon addition of cJun and the subsequent restoration of the unbound DNA band intensity upon titration of either (D) HingeW or (E) A-FosW. (F). For both CD and EMSA, data was averaged from three independent experiments and the plotted error bars indicate one standard deviation. […]
# (§4) µM) alongside ampicillin, kanamycin and chloramphenicol to maintain the required plasmids, and IPTG (1 mM) to induce protein expression. The library transformants were […]
# increased to the optimum 4 µM in subsequent passages. […] This allows the occurrence of library members to be monitored as winner sequences are selected for. […]
# [1] = tested on: cJun bZIP / TRE sites in TRE-mDHFR gene; assay: Transcription block survival (TBS) colony counting in E. coli; type: cell-based, human cJun, expressed in E. coli; conditions: three experimental repeats
# Procedure: Figure 3 Transcription block survival (TBS) assay to derive functionally active cJun inhibitors. (A) Schematic illustrating the design and operation of TBS. (B) Controlled numbers of E. coli expressing the indicated proteins were plated on selective media and growth rates were calculated by counting colony-forming units. […] (2) A small effect on colony numbers is observed when cJun bZIP is additionally expressed. (3) TRE-mDHFR can replace the inhibited ecDHFR with colony count lower than for WT as expected. […] Although (6) cFos LZ and (7) FosW are known cJun-binders, they are unable to effectively dissociate the cJun bZIP from TRE DNA. However, (8) A-FosW and the TBS-derived hit (9) HingeW remove TRE-mDHFR transcriptional blocks to restore cell survival. Bar charts represent averages of three experimental repeats. Errors are shown as one standard deviation. Selected P values from a t-test are indicated (*P ≤ 0.05; **P ≤ 0.01; ****P ≤ 0.0001) with values for all possible comparisons within the bar chart reported in Figure S7. Serial dilutions were used to quantify colony numbers where required. Also shown are representative plate images and schematics to illustrate the effect upon TRE-mDHFR transcription. […]
# Library Construction and TBS Assay: Library inserts were produced using PCR fill-in reactions from synthesised primers (Sigma) with degenerate codons at the desired positions to produce the correct residue options. The library was subcloned using SacI and AscI sites into the pET24a plasmid containing A-FosW. The primers used were cJun- […]
# -3’ and cJun-Hinge-Lib_R: 5’-
# -3’. The library DNA was transformed into NEB 10-beta electrocompetent E. coli cells. The following equation was utilised to determine library […]
# coverage by the number of single colonies: where E is the percentage […] of the library missing, m is the number of colonies collected and n is the library size. This […]
# covered. Library DNA quality was assessed by sequencing both the DNA pool and a number of single colonies to show degenerate codons in the correct positions in the pool and to show a diversity of library members from single colonies. The pool of library DNA was transformed into BL21 Gold cells already containing pES300d-TRE-mDHFR and […]
# as §4
# however a lower stringency is used initially before selection is increased in later steps.
# Colonies from this first round of selection were pooled and serially grown in liquid culture at starting OD600 of 0.05 and grown at 37°C with shaking at 200 rpm until the OD600 […]
# increased to the optimum 4 µM in subsequent passages. Bacteria containing the most effective functional antagonists were expected to produce higher levels of TRE-mDHFR which provides a growth advantage, and these will dominate the culture. At each passage step, a sample of the culture was plated on LB agar (supplemented with antibiotics to maintain plasmids) to select and sequence individual colonies, and a DNA pool was also sequenced. This allows the occurrence of library members to be monitored as winner sequences are selected for. Assay Validation experiments utilised a modified assay methodology whereby overnight cultures from glycerol stocks of the Control Strains (Figure S6) were diluted to OD600=0.5 and 50 µL was plated on a selective M9 minimal […]
compound,measurement,setting,value
"CN(Cc1cnc2nc(N)nc(N)c2n1)c1ccc(C(=O)N[C@@H](CCC(=O)O)C(=O)O)cc1 [MTX, methotrexate, reference compound]",inhibition by MTX,WT-mDHFR,clear inhibition of the reaction
same,inhibition by MTX,TRE-mDHFR,clear inhibition of the reaction
"MASLDELQAEIEQLEERNYALRKEIEDLQKQLEKLGAPHHHHHH [FosW, reference compound]",IC50,cJun/TRE DNA interaction,119.8 ± 1.1 µM
"cFos LZ: human cFos leucine zipper domain, Thr162 to Leu193 [reference compound]",restoration of colony numbers of transcriptionally blocked cells,"[1]; TRE-mDHFR + cJun bZIP + peptide vs TRE-mDHFR + cJun bZIP, M9 + TMP + IPTG, P > 0.05",no significant increase in colony numbers
"cJun LZ: cJun LZ only construct in which the 25 residue DBD was deleted; Ile277 to Leu308 (IARLEEKVKTLKAQNSELASTANMLREQVAQL; UniProt P05412 277-308, looked up, fragment) [reference compound]",effect of cJun LZ (DBD deleted) on colony formation,"[1]; TRE-mDHFR + cJun LZ vs TRE-mDHFR only, P = 0.1",did not affect bacterial colony formation
